Data from paper PMC10536189 (Microorganisms, 2023).
Where two headings read alike, the source gives them in different places.

Test system: M. tuberculosis
Format: cell-based, Mycobacterium tuberculosis (laboratory strain H37Rv)
Settings: for Time to Positivity (Days.Hours) Experiment 2a / Time to Positivity (Days.Hours) Experiment 2b: diluted inoculum; for Time to Positivity (Days.Hours) Experiment 2a: technical repeat 2a, TB control (no peptide) 15.01; for Time to Positivity (Days.Hours) Experiment 2b: technical repeat 2b, TB control (no peptide) 15.20; for Time to Positivity (Days.Hours) Experiment 1a / Time to Positivity (Days.Hours) Experiment 1b: less diluted inoculum; for Time to Positivity (Days.Hours) Experiment 1a: technical repeat 1a, TB control (no peptide) 7.02; for Time to Positivity (Days.Hours) Experiment 1b: technical repeat 1b, TB control (no peptide) 7.01; for Average % Faster than Control: negative = slower
[1] = peptide 10 µg/mL, overall average of the averages of experiments 1a/1b and 2a/2b
[2] = crude peptide 10 µg/mL, average of experiments 1 and 2
[3] = crude peptide 10 µg/mL, MGIT, independent experiment 1, Control (TB only) 11.10, inoculum emulsified through G25 needle
[4] = crude peptide 10 µg/mL, MGIT, independent experiment 2, Control (TB only) 9.10, inoculum emulsified through G25 needle

Substance	Time to Positivity (Day.Hours) Experiment 1	Time to Positivity (Day.Hours) Experiment 2	Average % Faster than Control [2]	also measured
76: peptide from the authors' library (VRWRIRVAVIRA) [Peptide 76]				Time to Positivity (Days.Hours) Experiment 2a (peptide 10 µg/mL, MGIT): 16.08 Days.Hours; Time to Positivity (Days.Hours) Experiment 2b (peptide 10 µg/mL, MGIT): 16.14 Days.Hours; Time to Positivity (Days.Hours) Experiment 1a (peptide 10 µg/mL, MGIT): 6.13 Days.Hours; Time to Positivity (Days.Hours) Experiment 1b (peptide 10 µg/mL, MGIT): 6.16 Days.Hours; Average % Faster than Control [1]: −1.4%
77: peptide from the authors' library (VRLRIRVAVIRA) [Peptide 77]				Time to Positivity (Days.Hours) Experiment 2a (peptide 10 µg/mL, MGIT): 14.22 Days.Hours; Time to Positivity (Days.Hours) Experiment 2b (peptide 10 µg/mL, MGIT): 15.03 Days.Hours; Time to Positivity (Days.Hours) Experiment 1a (peptide 10 µg/mL, MGIT): 6.14 Days.Hours; Time to Positivity (Days.Hours) Experiment 1b (peptide 10 µg/mL, MGIT): 6.04 Days.Hours; Average % Faster than Control [1]: 5.0%
ALKAALLAILKIVRVI [CM-3/Designed]	11.04 Day.Hours	8.03 Day.Hours	8.0%	
Bombolitin V/Bee: naturally occurring peptide, APD3, bee (INVLGILGLLGKALSHL)	10.22 Day.Hours	8.13 Day.Hours	6.8%	
CM15/Bee venom: peptide from APD3, bee venom (KWKLFKKIGAVLKVL)	10.19 Day.Hours	8.01 Day.Hours	10.0%	
Eumenitin/Wasp: naturally occurring peptide, APD3, wasp (LNLKGIFKKVASLLT)	11.00 Day.Hours	8.08 Day.Hours	7.6%	
FFGSVLKLIPKIL [Temporin-PTa/Frog, naturally occurring peptide, APD3, frog]			6.3%	Time to Positivity (Day.Hours) Experiment 1 [3]: 11.07 Day.Hours; Time to Positivity (Day.Hours) Experiment 2 [4]: 8.08 Day.Hours
FFHHIFRGIVHVGKTI [Piscidin 1/Fish *, fragment of naturally occurring peptide, APD3, fish]			7.8%	Time to Positivity (Day.Hours) Experiment 1 [3]: 10.18 Day.Hours; Time to Positivity (Day.Hours) Experiment 2 [4]: 8.12 Day.Hours
FFIYVWRRR [P8/Designed *]	11.16 Day.Hours	8.22 Day.Hours	1.6%	
FFPFLLGALGSLLPKIF [Temporin-SN1/Frog]	10.22 Day.Hours	8.23 Day.Hours	4.6%	
FFPYAALKWLRKLLKK [P-04/Tunicate]	11.02 Day.Hours	8.08 Day.Hours	7.2%	
FGKILGVGKKVLCGLS [Odorranain-H1/Frog *]	10.19 Day.Hours	8.03 Day.Hours	9.6%	
FIFIRWLLKLGHHGRA [Salusin-beta/Scorpion *]	10.18 Day.Hours	8.03 Day.Hours	9.8%	
FIITGLVRGLTKLF [Temporin-LTb/Frog]	11.07 Day.Hours	8.06 Day.Hours	6.7%	
FITLLLRKFICSITKKC [Brevinin-1Ta/Frog]	11.07 Day.Hours	8.05 Day.Hours	7.0%	
FLGALAKIISGIF [Temporin-1TSa/Frog]	11.00 Day.Hours	8.02 Day.Hours	8.9%	
FLGVVFKLASKVFPAV [D28/Designed *]	11.02 Day.Hours	8.09 Day.Hours	7.0%	
FLPLFASLIGKLL [Temporin-1Cb/Frog]	11.08 Day.Hours	8.06 Day.Hours	6.6%	
FLPLIAGLIGKLF [Peptide B9/Frog]	10.19 Day.Hours	8.01 Day.Hours	10.0%	
FLPLIGRVLSGIL [Temporin A/Frog, naturally occurring peptide, APD3, frog]			3.7%	Time to Positivity (Day.Hours) Experiment 1 [3]: 11.02 Day.Hours; Time to Positivity (Day.Hours) Experiment 2 [4]: 9.00 Day.Hours
FLPLLASLFSRLF [Temporin-1Oc/Frog, naturally occurring peptide, APD3, frog]			3.8%	Time to Positivity (Day.Hours) Experiment 1 [3]: 11.10 Day.Hours; Time to Positivity (Day.Hours) Experiment 2 [4]: 8.17 Day.Hours
FLPLVTMLLGKLF [Temporin-1Vc/Frog]	11.12 Day.Hours	8.21 Day.Hours	2.5%	

Substance	Time to Positivity (Day.Hours) Experiment 1	Time to Positivity (Day.Hours) Experiment 2	Average % Faster than Control [2]	also measured
FLSIIAKVLGSLF [Temporin 1Vb/Frog]	11.10 Day.Hours	8.08 Day.Hours	5.8%	
FLSLIPSLVGGSISAFK [TsAP-1/Scorpion]	11.07 Day.Hours	8.05 Day.Hours	7.0%	
FLSTIWNGIKSLL [Pantinin-3/Scorpion]	11.08 Day.Hours	8.23 Day.Hours	2.8%	
FVQWFSKFLGRIL [Temporin L/Frog]	11.06 Day.Hours	8.05 Day.Hours	7.1%	
GAILPLALGALKNLIK [Hylin a1/Frog]	11.14 Day.Hours	8.02 Day.Hours	6.3%	
GFGMALKLLKKVL [Macropin 1/Wasp]	10.12 Day.Hours	8.07 Day.Hours	10.0%	
GFKRIVQRIKDFLRNLV [GF-17/Human *]	10.02 Day.Hours	8.07 Day.Hours	11.8%	
GFWGKLFKLGLHGIGL [NRC-15/Flounder]	11.02 Day.Hours	8.14 Day.Hours	5.9%	
GLGSLVGNALRIGAKLL [CPF-AM4/Frog]	10.17 Day.Hours	8.06 Day.Hours	9.3%	
GRLCYCRGWICFCVGR [Protegrin 4/Pig *]	11.11 Day.Hours	8.01 Day.Hours	7.1%	
HFLGTLVNLAKKIL [Temporin-1DRa/Frog, naturally occurring peptide, APD3, frog]			8.5%	Time to Positivity (Day.Hours) Experiment 1 [3]: 10.18 Day.Hours; Time to Positivity (Day.Hours) Experiment 2 [4]: 8.09 Day.Hours
ILGAILPLVSGLLSNKL [Alyteserin-2b/Toad]	11.18 Day.Hours	8.02 Day.Hours	5.6%	
ILPFLAGLFSKIL [Pelophylaxin-4/Frog]	11.05 Day.Hours	8.18 Day.Hours	4.5%	
ILPWKWPWWPWRR [Indolicidin/Cow]	11.03 Day.Hours	8.18 Day.Hours	4.8%	
INLKAIAALVKKLL [Mastoparan-VT6/Wasp]	10.21 Day.Hours	8.04 Day.Hours	9.0%	
IRLHRLYTWKATIYTR [PP13/Wasp *]	10.17 Day.Hours	8.02 Day.Hours	10.2%	
IsCT2/Scorpion: naturally occurring peptide, APD3, scorpion (IFGAIWNGIKSLF)	10.23 Day.Hours	8.21 Day.Hours	4.9%	
KKLLGKLLKKLGKLLL [GLK-19/Designed *]	10.17 Day.Hours	8.04 Day.Hours	9.7%	
KRRWRIWLV [P9/Designed]	11.10 Day.Hours	8.14 Day.Hours	4.4%	
LFKLLGKIIHHVGNFV [Clavanin E/Sea squirt, naturally occurring peptide, APD3, sea squirt]			5.8%	Time to Positivity (Day.Hours) Experiment 1 [3]: 11.05 Day.Hours; Time to Positivity (Day.Hours) Experiment 2 [4]: 8.12 Day.Hours
LLAGLPKLLCLFFKKC [Brevinin-1DYc/Frog]	11.10 Day.Hours	8.16 Day.Hours	4.0%	
